# From US10570174B2, “Peptides for the treatment of malignant proliferative diseases” (Yissum Research Development Company of the Hebrew …, priority 2015, dated 2020)
# Key:
# [1] = system: 4T1 mammary carcinoma cells; assay: Lung metastasis in mice inoculated with 4T1 cells, YHI1 and derivatives vs control compounds (Example 6); assay type: in vivo, BALB/c mice; settings: i.p., doses molar equivalent to 30 ng/kg YHI1, day 5 to day 16, 6 days a week
# Protocol: YHI1 and its derivatives YHI2 and YHI4 were tested in comparison to a scrambled sequence (designated ‘YHI3’), IIIM1 and Arg-Pbf. All peptides were synthesized to over 98% purity.
# Female BALB/c mice (9-10 weeks old) were iv injected with 4T1 cells (1×10^4 cells in 0.2 ml culture medium; medium was replaced with fresh medium one day prior to the injection). The tested compounds were ip administered on day 5 after tumor cell inoculation and continued daily thereafter 6 days a week until day 16, on which day the mice were sacrificed (in YHI3 group one animal died 14 days after cell injection before end of study). Each mouse received 10 injections during 11 consecutive days. A control group of mice received the same volume of saline (vehicle) injections. Each group contained 8 mice (n=8). Additional 4 mice remained naïve (without tumor cell injection and without any treatment), designated here as ‘pure control’. At the end of the experiments the mice were sacrificed and their lungs were removed, weighed and quantified for number of foci.
# [2] = system: D122 cells (3LL Lewis lung carcinoma); assay: Tumor growth in footpads of mice injected with D122 lung tumor cells, oral YHI1; assay type: in vivo, C57BL/6 mice
# Protocol: (§1) YHI1 was synthesized by solid phase synthesis to over 95% purity. To assess the effect of YHI1 on local tumor growth, lung cancer cells were injected into footpads of mice to induce the formation of a topical tumor, and the tumor size was measured in mice treated with several dosages of YHI1 or with vehicle only. Two separate experiments were carried out using this model, one in which YHI1 and vehicle were administered orally and another in which YHI1 and vehicle were administered via intraperitoneal (i.p.) injection.
# Female C57BL/6 mice were injected in the footpads with D122 cells (2×10^5 cells per mouse suspended in 50 μl PBS), a highly metastatic 3LL Lewis lung carcinoma. YHI1 (dissolved in saline) was orally administered at the indicated doses 8, 6, 4 and 1 day prior to cell injection and thereafter during 35 days, 3 times a week. Control mice received the vehicle (saline). Tumor size (diameter) was measured by a caliper. Baseline value (before cell injection) was subtracted from each measurement. Groups: control (n=10), and YHI1—0.1 mg/kg (n=9), 1 mg/kg (n=10), 5 mg/kg (n=8).
# The results are expressed as mean±SE. p<0.05 for 5 mg/kg group versus control, for the period of 23-35 days (Mann-Whitney test).
# [3] = system: D122 cells (3LL Lewis lung carcinoma); assay: Tumor growth in footpads of mice injected with D122 lung tumor cells, i.p. YHI1; assay type: in vivo, C57BL/6 mice
# Protocol: as §1
# Female C57BL/6 mice were injected in the footpads with D122 cells (2×10^5 cells per mouse suspended in 50 μl PBS). YHI1 was i.p. administered at the indicated doses 8, 6, 4 or 1 day prior to cell injection and thereafter up to 34 days, 3 times a week. Control mice received the vehicle (saline). Tumor size (diameter) was measured by a caliper. Baseline value (before cell injection) was subtracted from each measurement. Groups: control (n=10), and YHI1—0.1 μg/kg (n=10), 1 μg/kg (n=10), 10 μg/kg (n=11), 100 μg/kg (n=9).
# The results are expressed as mean±SE using the Kruskal-Wallis test and Dunnett's multiple comparison post test for statistical evaluation of the differences between the treated groups and control group at each time point.
# D122 cells [4] = assay: Lung metastasis in mice i.v. injected with D122 cells, treatment started before cell injection; assay type: in vivo, C57BL/6 mice; settings: for reduction in Δ lung weight compared to control: day 35
# Protocol: To examine the effect of YHI1 on cancer cell metastasis, lung metastasis was induced in mice, and the lung weight and the number of large metastases in mice treated with YHI1 or with vehicle only were measured.
# Female C57BL/6 mice were i.v. injected with D122 cells (5×10^5 cells per mouse suspended in 100 μl PBS). YHI1 was i.p. administered at doses of 0.1 μg/kg body weight and 0.01 μg/kg body weight 8, 6, 4 and 1 day prior to cell injection and thereafter up to 35 days, 3 times a week. Control mice received the vehicle (saline).
# Lung weight was determined on day 35 for each animal. Mean weight of lungs of healthy-non injected mice was subtracted from each value of the experimental and control groups, and the results are expressed as A lung weight. n=11, 10 and 9 mice for control, YHI1 0.1 and 0.01 μg/kg groups, respectively. Results are expressed as mean±SE using the Kruskal-Wallis test and Dunnett's multiple comparison post test for statistical evaluation of the differences in lung weight between the experimental groups and control mice. *p<0.05 for both 0.1 μg/kg and 0.01 μg/kg groups.
# The number of large visible metastases in the lungs was next quantified. […] The results are expressed as mean±SE. *p<0.05 Mann Whitney test.
# The lungs were then fixed, sectioned and stained with H&E for histopathological evaluation.
# D122 cells [5] = assay: Lung metastasis in mice i.v. injected with D122 cells, treatment started 7 days after cell injection; assay type: in vivo, C57BL/6 mice; settings: i.p. 0.01 μg/kg from 7 days after cell injection
# Protocol: To assess whether time of treatment affects the metastasis process, YHI1 was administered 7 days after tumor cell injection. Female C57BL/6 mice were i.v. injected with D122 cells (5×10^5 cells per mouse suspended in 100 μl PBS). YHI1 was i.p. administered at a dose of 0.01 μg/kg body weight (volume of 0.1 ml) 7 days after cell injection and thereafter up to 35 days, 3 times a week. Control mice received the vehicle (saline). Lung weight, number of tumors, lung histology (H&E) and survival were determined on day 35 after cell inoculation for each animal Lung weight was compared to a healthy lung removed from a naïve animal.
# [6] = system: 4T1 mammary carcinoma cells; assay: Lung metastasis in mice inoculated with 4T1 mammary carcinoma cells (Example 4); assay type: in vivo, BALB/c mice; set-up: Score (histological score of lung, per specimen): scale not given here
# Protocol: Female BALB/c mice (9-10 weeks) were i.v. injected with mammary 4T1 tumor cells (1×10^4 cells in 0.2 ml culture medium). YHI1 was i.p. administered to the mice at doses of 3, 10 and 30 ng/kg body weight (0.1 ml) on day 5 after tumor cell inoculation and thereafter 6 days a week, until day 21, on which day the mice were sacrificed. Control mice received saline (vehicle) injections. Additional 3 mice remained naïve (“pure control”, no cell injection, no treatment). Each dose group contained 10 mice. At the end of the experiments the mice were sacrificed, the lungs of the mice were removed, weighed and quantified for the number of foci.
# B16-F10 cells = assay: Tumorigenicity of B16-F10 melanoma cells injected subcutaneously; assay type: in vivo, C57BL/6 mice; settings: 17 days after cell injection
# Protocol: To examine the effect of YHI1 on melanoma tumor cells, female C57BL/6 mice (6-7 weeks) were subcutaneously injected in the lateral thoracic-abdominal area with B16-F10 cells (2×10^5 cells in 0.1 ml culture medium). YHI1 was i.p. administered at doses of 30 and 100 ng/kg body weight (0.1 ml) on day 3 after tumor cell inoculation and thereafter until day 20 of tumor cell inoculation, 6 times a week. Control mice received saline (vehicle) injections. Each dose group contained 10 mice. Tumor size was measured along the experiment and was expressed as multiplication of length and width of the tumor.
substance,measurement,setting,value
"H-Lys-Gly-His-Tyr-Ala-Glu-Arg(NO2)-Val-Gly-OH (KGHYAEXVG; HELM PEPTIDE1{K.G.H.Y.A.E.[N=C(NCCC[C@H](N[*:1])C(=O)[*:2])N[N+](=O)[O-]].V.G}$$$$V2.0; SMILES CC(C)[C@H](NC(=O)[C@H](CCCNC(=N)N[N+](=O)[O-])NC(=O)[C@H](CCC(=O)O)NC(=O)[C@H](C)NC(=O)[C@H](Cc1ccc(O)cc1)NC(=O)[C@H](Cc1c[nH]cn1)NC(=O)CNC(=O)[C@@H](N)CCCCN)C(=O)NCC(=O)O) [YHI4, KGHYAER(NO2)VG, derivative of YHI1]",lung weight compared to saline control,[1],significant reduction
same,number of tumors per lung compared to saline control,[1],reduction was not statistically significant
H-Lys-Gly-His-Tyr-Ala-Glu-Arg(Pbf)-Val-Gly-OH (KGHYAEXVG; HELM PEPTIDE1{K.G.H.Y.A.E.[Cc1c(C)c(S(=O)(=O)NC(=N)NCCC[C@H](N[*:1])C(=O)[*:2])c(C)c2c1OC(C)(C)C2].V.G}$$$$V2.0; SMILES Cc1c(C)c(S(=O)(=O)NC(=N)NCCC[C@H](NC(=O)[C@H](CCC(=O)O)NC(=O)[C@H](C)NC(=O)[C@H](Cc2ccc(O)cc2)NC(=O)[C@H](Cc2c[nH]cn2)NC(=O)CNC(=O)[C@@H](N)CCCCN)C(=O)N[C@H](C(=O)NCC(=O)O)C(C)C)c(C)c2c1OC(C)(C)C2) [YHI1],"reduction of tumor size, comparison between doses","[2]; oral, 5 mg/kg vs 1 mg/kg and 0.1 mg/kg",more effective in reducing tumor size than the lower doses
same,"rate of tumor growth (tumor size, diameter)","[2]; oral, 0.1, 1, 5 mg/kg, 8, 6, 4, 1 day prior to cell injection and 3 times a week during 35 days",reduced the rate of tumor growth
same,"reduction of tumor size, comparison between doses",[3]; 0.1 μg/kg vs higher doses up to 100 μg/kg,more effective in reducing tumor size than higher doses
same,"rate of tumor growth (tumor size, diameter)","[3]; 0.1-100 μg/kg, 8, 6, 4, 1 day prior to cell injection and 3 times a week up to 34 days",reduced the rate of tumor growth
same,number of large visible metastases in the lungs,D122 cells [4]; i.p. 0.01 μg/kg,totally eliminated visible metastases
same,reduction in Δ lung weight compared to control,D122 cells [4]; i.p. 0.01 μg/kg,87%
same,lung histopathology (H&E),"D122 cells [4]; i.p. 0.01 μg/kg, representative section",tumor free
same,reduction of number of large metastases compared to control,D122 cells [4]; i.p. 0.1 μg/kg,58%
same,reduction in Δ lung weight compared to control,D122 cells [4]; i.p. 0.1 μg/kg,78%
same,histological lung sections (H&E),D122 cells [5],only a single focus of viable tumor
same,histological score of lung metastasis,D122 cells [5],significantly reduced
same,lung weight lower than control,D122 cells [5]; day 35,63%
same,number of large and medium sized metastases in the lungs,D122 cells [5]; day 35,significantly reduced
same,survival,D122 cells [5]; control 80% survival,full animal survival
same,"Description (blindly evaluated) of lung histology, per specimen","[6]; 30 ng/kg, individual specimens i-X",No metastases observed.
same,"Score (histological score of lung, per specimen)","[6]; 30 ng/kg, individual specimens i-X, blindly evaluated",0
same,effect on foci number,[6]; i.p. 3 ng/kg,no effect
same,effect on lung weight,"[6]; i.p. 3 ng/kg, day 5 to day 21, 6 days a week",no effect
same,reduction of number of lung foci vs control,[6]; i.p. 10 ng/kg,94%
same,reduction of lung weight vs control,"[6]; i.p. 10 ng/kg, day 5 to day 21, 6 days a week",65%
same,reduction of number of lung foci vs control,[6]; i.p. 30 ng/kg,100%
same,histological score of lung metastasis (group),[6]; i.p. 30 ng/kg vs control,significantly reduced
same,reduction of lung weight vs control,"[6]; i.p. 30 ng/kg, day 5 to day 21, 6 days a week",78%
same,histological lung section,"[6]; i.p. 30 ng/kg, representative section",normal lung tissue with no evidence of metastases
same,effect on local tumor growth,B16-F10 cells; i.p. 30 ng/kg compared with 100 ng/kg,slightly weaker effect
same,"reduction of local tumor growth (tumor size, length x width)",B16-F10 cells; i.p. 100 ng/kg,55%
same,lung weight compared to saline control,[1],significant reduction
same,number of tumors per lung compared to saline control,[1],significant reduction
"H-Lys-Gly-His-Tyr-Arg(Pbf)-Ala-Glu-Val-Gly-OH (KGHYXAEVG; HELM PEPTIDE1{K.G.H.Y.[Cc1c(C)c(S(=O)(=O)NC(=N)NCCC[C@H](N[*:1])C(=O)[*:2])c(C)c2c1OC(C)(C)C2].A.E.V.G}$$$$V2.0; SMILES Cc1c(C)c(S(=O)(=O)NC(=N)NCCC[C@H](NC(=O)[C@H](Cc2ccc(O)cc2)NC(=O)[C@H](Cc2c[nH]cn2)NC(=O)CNC(=O)[C@@H](N)CCCCN)C(=O)N[C@@H](C)C(=O)N[C@@H](CCC(=O)O)C(=O)N[C@H](C(=O)NCC(=O)O)C(C)C)c(C)c2c1OC(C)(C)C2) [YHI2, KGHYR(Pbf)AEVG, derivative of YHI1]",lung weight compared to saline control,[1],significant reduction
same,number of tumors per lung compared to saline control,[1],significant reduction
